Results published in publication PMC3546527 (MedChemComm, 2012).

Target: HK853 (Thermotoga maritima, UniProt Q9WZV7)
Experiment: STD-NMR
Format: binding

Nc1ncnc2c1ncn2[C@@H]1O[C@H](COP(=O)(O)OP(=O)(O)O)[C@@H](O)[C@H]1O [ADP]
f STD ^a: 73.3
